One may read the half-life as the time needed for the level to fall by half in the phase considered. As usually defined, the AUC is concentration integrated over time. A word on the clearance: it is a measure of how efficiently the substance is removed, as volume per time. Lower therefore signals a low capacity for elimination. The term bioavailability denotes dose-corrected exposure relative to a reference, in per cent. A high value points to good availability.

These results are taken from patent CN103301132A, “川芎嗪仲、叔醇类衍生物及其在制药中的应用” (Nanjing University of Chinese Medicine, priority 2013, dated 2013).

A short description of data set [1]: Further study of other liguzinediol derivatives (activity, arrhythmia). Conditions: no details given.
For data set [2] the following is noted: cited from earlier work.
Data set [3] has as its target T1, SERCA2a in cardiomyocytes [心肌细胞内的SERCA2a靶点] (Homo sapiens, UniProt P16615).
T1 construct: 心肌细胞内的SERCA2a靶点; endogenous in cells
The note with it: mechanism study; cited from earlier work.

The subject of data set [4] is isolated rat heart [Isolated Rat Heart]. Conditions: pharmacological studies; cited from earlier work.
Data set [5] can be described thus: Pharmacokinetics in Sprague-Dawley rats (plasma, HPLC). It is filed as in vivo. Conditions: SD rat; for AUC / half-life: gavage and tail vein dosing.
[6] abbreviates: 10 mg/kg, low dose (doses 10, 20, 40 mg·kg-1), route not given.
Setting [7] is: 20 mg/kg, middle dose (doses 10, 20, 40 mg·kg-1), route not given.
Setting [8] is: high dose (doses 10, 20, 40 mg·kg-1), route not given.

Molecules are shown by their SMILES. Where two headings read alike, the source gives them in different places.

T1 sequence (P16615 1-997 isoform P16615-2): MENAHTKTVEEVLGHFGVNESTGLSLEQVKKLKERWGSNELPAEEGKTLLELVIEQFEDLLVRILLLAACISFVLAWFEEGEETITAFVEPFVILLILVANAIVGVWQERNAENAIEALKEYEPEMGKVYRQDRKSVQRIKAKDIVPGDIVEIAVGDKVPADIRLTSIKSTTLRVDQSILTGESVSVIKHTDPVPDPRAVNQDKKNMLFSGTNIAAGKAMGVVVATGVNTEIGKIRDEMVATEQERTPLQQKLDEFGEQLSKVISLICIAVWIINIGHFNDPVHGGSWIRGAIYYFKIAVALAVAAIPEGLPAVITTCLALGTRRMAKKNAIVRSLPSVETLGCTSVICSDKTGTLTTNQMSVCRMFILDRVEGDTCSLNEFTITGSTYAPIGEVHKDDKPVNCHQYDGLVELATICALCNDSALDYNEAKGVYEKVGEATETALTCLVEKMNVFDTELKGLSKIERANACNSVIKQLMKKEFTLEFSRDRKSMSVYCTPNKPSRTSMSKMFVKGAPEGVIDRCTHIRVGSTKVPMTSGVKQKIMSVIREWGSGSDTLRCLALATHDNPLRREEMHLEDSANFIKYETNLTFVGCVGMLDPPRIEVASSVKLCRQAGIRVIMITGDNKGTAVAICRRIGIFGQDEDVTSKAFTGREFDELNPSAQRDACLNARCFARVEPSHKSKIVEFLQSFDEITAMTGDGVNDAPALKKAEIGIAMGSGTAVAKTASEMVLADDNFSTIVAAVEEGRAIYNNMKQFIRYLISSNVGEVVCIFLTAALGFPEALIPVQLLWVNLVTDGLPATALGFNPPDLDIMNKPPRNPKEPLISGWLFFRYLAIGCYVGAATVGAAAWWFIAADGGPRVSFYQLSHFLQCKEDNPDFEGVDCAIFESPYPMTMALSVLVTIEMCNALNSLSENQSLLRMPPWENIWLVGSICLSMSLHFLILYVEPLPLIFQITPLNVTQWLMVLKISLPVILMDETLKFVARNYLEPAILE

As to `CCOCc1nc(C)c(COCC)nc1C` [2,5-二乙氧甲基-3,6-二甲基吡嗪], the arrhythmia entry in data set [1] was “会导致心律失常”.
In the case of `COCc1nc(C)c(COC)nc1C` [2,5-二甲氧甲基-3,6-二甲基吡嗪], the arrhythmia entry in data set [1] is listed as “会导致心律失常”.
For `Cc1nc(C(=O)O)c(C)nc1C(=O)O` [3,6-二甲基-2,5-吡嗪二甲酸], the activity entry in data set [1] is listed as “明显下降”.
For `Cc1nc(CO)c(C)nc1CO` [liguzinediol, 2,5-二羟甲基-3,6-二甲基吡嗪], in data set [2] (in animals), the half-life is given as 1.6 h and the metabolic rate result is on record as “相对较快”. Besides, in data set [2] (in vivo), the glucuronide conjugate formation entry is recorded as “很快地形成了葡萄糖醛酸结合物而排出体外”; the “oxidation of hydroxymethyl and side-chain methyl” value is “容易被氧化成极性和水溶性较大的化合物而排出体外”. The “mechanism of positive inotropic effect” value in data set [3] is “通过作用于心肌细胞内的SERCA2a靶点而发挥正性肌力作用”. Further, in data set [4], the arrhythmia side effect result is on record as “没有心律失常副作用” and the positive inotropic effect entry is given as “明显的正性肌力作用”.
`CCC(O)c1nc(C)c(C(O)CC)nc1C` (stereo not drawn) [化合物2, 2,5-二-(1-羟基丙基)-3,6-二甲基吡嗪]: the AUC in data set [5] (setting [6]) was 34000 ng·h/mL; in data set [5] (setting [7]), 70000 ng·h/mL; in data set [5] (setting [8]), 135000 ng·h/mL. Besides, the values for the half-life in data set [5] (setting [6]), in data set [5] (setting [7]) and in data set [5] (setting [8]) were 3.7 h, 3.6 h and 3.5 h, respectively. This compound gave a clearance in data set [5] (low, middle and high doses, route not given) of around 5 mL/min/kg. The compound further returned a bioavailability in data set [5] (po, gavage and tail vein injection, 10, 20, 40 mg·kg-1) of 90%.
